# Measured values: ChEMBL document CHEMBL5303573, “Mapping human microbiome drug metabolism by gut bacteria and their genes” (Nature, 2019)
# How the values were obtained:
# [1] = The drug is tested on Odoribacter splanchnicus strain: fecal isolate for biotransformation. The drug concentrations were measured before and after a 12-h incubation by liquid-chromatography-coupled mass spectrometry (LC–MS); details: 2 µM
# [2] = The drug is tested on Anaerococcus hydrogenalis strain: DSM7454 for biotransformation. The drug concentrations were measured before and after a 12-h incubation by liquid-chromatography-coupled mass spectrometry (LC–MS); details: 2 µM
# [3] = The drug is tested on Bacteroides ovatus strain: ATCC8483 for biotransformation. The drug concentrations were measured before and after a 12-h incubation by liquid-chromatography-coupled mass spectrometry (LC–MS); details: 2 µM
# [4] = The drug is tested on Eubacterium hallii strain: DSM3353 for biotransformation. The drug concentrations were measured before and after a 12-h incubation by liquid-chromatography-coupled mass spectrometry (LC–MS); details: anaerobutyricum hallii, 2 µM
# [5] = The drug is tested on Ruminococcus torques strain: ATCC27756 for biotransformation. The drug concentrations were measured before and after a 12-h incubation by liquid-chromatography-coupled mass spectrometry (LC–MS); format: ADME; parameters: dose 2 uM, timepoint 0 vs 12 hours; details: 2 µM
# [6] = enterocloster bolteae, 12 h, 2 µM
# Description: The drug is tested on Clostridium bolteae strain: ATCCBAA-613 for biotransformation. The drug concentrations were measured before and after a 12-h incubation by liquid-chromatography-coupled mass spectrometry (LC–MS)
# [7] = The drug is tested on Escherichia coli strain: BW25113 for biotransformation. The drug concentrations were measured before and after a 12-h incubation by liquid-chromatography-coupled mass spectrometry (LC–MS); details: 2 µM
# [8] = The drug is tested on Collinsella intestinalis strain: DSM13280 for biotransformation. The drug concentrations were measured before and after a 12-h incubation by liquid-chromatography-coupled mass spectrometry (LC–MS); details: 2 µM
# [9] = bacteroides thetaiotaomicron, 12 h, 2 µM
# Description: The drug is tested on Bacteroides thetaiotaomicron strain: 3731 for biotransformation. The drug concentrations were measured before and after a 12-h incubation by liquid-chromatography-coupled mass spectrometry (LC–MS)
# [10] = The drug is tested on Providencia rettgeri strain: DSM1131 for biotransformation. The drug concentrations were measured before and after a 12-h incubation by liquid-chromatography-coupled mass spectrometry (LC–MS); format: ADME; parameters: dose 2 uM, timepoint 0 vs 12 hours; details: 2 µM
# [11] = The drug is tested on Bacteroides sp. WH2 strain: WH2 for biotransformation. The drug concentrations were measured before and after a 12-h incubation by liquid-chromatography-coupled mass spectrometry (LC–MS); details: bacteroides sp. wh2, 12 h, 2 µM
# [12] = The drug is tested on Providencia stuartii strain: ATCC25827 for biotransformation. The drug concentrations were measured before and after a 12-h incubation by liquid-chromatography-coupled mass spectrometry (LC–MS); details: 2 µM
# [13] = The drug is tested on Ruminococcus lactaris strain: ATCC29176 for biotransformation. The drug concentrations were measured before and after a 12-h incubation by liquid-chromatography-coupled mass spectrometry (LC–MS); details: 2 µM
# [14] = limosilactobacillus reuteri cf48-3a, 12 h, 2 µM
# Description: The drug is tested on Lactobacillus reuteri CF48-3A strain: BEI HM-102 for biotransformation. The drug concentrations were measured before and after a 12-h incubation by liquid-chromatography-coupled mass spectrometry (LC–MS)
# [15] = The drug is tested on Bacteroides finegoldii strain: DSM17565 for biotransformation. The drug concentrations were measured before and after a 12-h incubation by liquid-chromatography-coupled mass spectrometry (LC–MS); details: 2 µM
# [16] = The drug is tested on Bifidobacterium longum subsp. Infantis strain: CCUG52486 for biotransformation. The drug concentrations were measured before and after a 12-h incubation by liquid-chromatography-coupled mass spectrometry (LC–MS); details: 2 µM
# [17] = The drug is tested on Bacteroides caccae strain: ATCC43185 for biotransformation. The drug concentrations were measured before and after a 12-h incubation by liquid-chromatography-coupled mass spectrometry (LC–MS); details: 2 µM
# [18] = The drug is tested on Coprococcus comes strain: ATCC27758 for biotransformation. The drug concentrations were measured before and after a 12-h incubation by liquid-chromatography-coupled mass spectrometry (LC–MS); format: ADME; parameters: dose 2 uM, timepoint 0 vs 12 hours; details: 2 µM
# [19] = anaerostipes sp., 12 h, 2 µM
# Description: The drug is tested on Anaerostipes sp. strain: fecal isolate for biotransformation. The drug concentrations were measured before and after a 12-h incubation by liquid-chromatography-coupled mass spectrometry (LC–MS)
# [20] = The drug is tested on Anaerotruncus colihominis strain: DSM17241 for biotransformation. The drug concentrations were measured before and after a 12-h incubation by liquid-chromatography-coupled mass spectrometry (LC–MS); details: 2 µM
# [21] = The drug is tested on Subdoligranulum variabile strain: DSM15176 for biotransformation. The drug concentrations were measured before and after a 12-h incubation by liquid-chromatography-coupled mass spectrometry (LC–MS); details: 2 µM
# [22] = parabacteroides johnsonii, 12 h, 2 µM
# Description: The drug is tested on Parabacteroides johnsonii strain: DSM18315 for biotransformation. The drug concentrations were measured before and after a 12-h incubation by liquid-chromatography-coupled mass spectrometry (LC–MS)
# [23] = The drug is tested on Eubacterium rectale strain: ATCC33656 for biotransformation. The drug concentrations were measured before and after a 12-h incubation by liquid-chromatography-coupled mass spectrometry (LC–MS); details: agathobacter rectalis, 2 µM
# [24] = The drug is tested on Eubacterium ventriosum strain: ATCC27560 for biotransformation. The drug concentrations were measured before and after a 12-h incubation by liquid-chromatography-coupled mass spectrometry (LC–MS); format: ADME; parameters: dose 2 uM, timepoint 0 vs 12 hours; details: 2 µM
# [25] = The drug is tested on Bifidobacterium ruminantium strain: fecal isolate for biotransformation. The drug concentrations were measured before and after a 12-h incubation by liquid-chromatography-coupled mass spectrometry (LC–MS); details: 2 µM
# [26] = bacteroides intestinalis, 12 h, 2 µM
# Description: The drug is tested on Bacteroides intestinalis strain: DSM17393 for biotransformation. The drug concentrations were measured before and after a 12-h incubation by liquid-chromatography-coupled mass spectrometry (LC–MS)
# [27] = akkermansia muciniphila, 12 h, 2 µM
# Description: The drug is tested on Akkermansia muciniphila strain: ATCC BAA-835 for biotransformation. The drug concentrations were measured before and after a 12-h incubation by liquid-chromatography-coupled mass spectrometry (LC–MS)
# [28] = The drug is tested on Enterobacter cancerogenus strain: ATCC35316 for biotransformation. The drug concentrations were measured before and after a 12-h incubation by liquid-chromatography-coupled mass spectrometry (LC–MS); details: 2 µM
# [29] = The drug is tested on Clostridium symbiosum strain: ATCC14940 for biotransformation. The drug concentrations were measured before and after a 12-h incubation by liquid-chromatography-coupled mass spectrometry (LC–MS); details: 2 µM
# [30] = The drug is tested on Clostridium sporogenes strain: ATCC15579 for biotransformation. The drug concentrations were measured before and after a 12-h incubation by liquid-chromatography-coupled mass spectrometry (LC–MS); details: 2 µM
# [31] = The drug is tested on Dorea formicigenerans strain: ATCC27755 for biotransformation. The drug concentrations were measured before and after a 12-h incubation by liquid-chromatography-coupled mass spectrometry (LC–MS); details: 2 µM
# [32] = The drug is tested on Ruminococcus gnavus strain: ATCC29149 for biotransformation. The drug concentrations were measured before and after a 12-h incubation by liquid-chromatography-coupled mass spectrometry (LC–MS); details: mediterraneibacter gnavus, 2 µM
structure (smiles),measurement,setting,value
CCCCCOC(=O)Nc1nc(=O)n([C@@H]2O[C@H](C)[C@@H](O)[C@H]2O)cc1F [CAPECITABINE],Bacterial Biotransformation,[1],Compound metabolized
same,Bacterial Biotransformation,[2],Compound NOT metabolized
same,Bacterial Biotransformation,[3],Compound NOT metabolized
same,Bacterial Biotransformation,[4],Compound NOT metabolized
same,Bacterial Biotransformation,[5],Compound NOT metabolized
same,Bacterial Biotransformation,[6],Compound NOT metabolized
same,Bacterial Biotransformation,[7],Compound metabolized
same,Bacterial Biotransformation,[8],Compound NOT metabolized
same,Bacterial Biotransformation,[9],Compound NOT metabolized
same,Bacterial Biotransformation,[10],Compound NOT metabolized
same,Bacterial Biotransformation,[11],Compound NOT metabolized
same,Bacterial Biotransformation,[12],Compound NOT metabolized
same,Bacterial Biotransformation,[13],Compound NOT metabolized
same,Bacterial Biotransformation,[14],Compound metabolized
same,Bacterial Biotransformation,[15],Compound NOT metabolized
same,Bacterial Biotransformation,[16],Compound metabolized
same,Bacterial Biotransformation,[17],Compound NOT metabolized
same,Bacterial Biotransformation,[18],Compound NOT metabolized
same,Bacterial Biotransformation,[19],Compound NOT metabolized
same,Bacterial Biotransformation,[20],Compound NOT metabolized
same,Bacterial Biotransformation,[21],Compound NOT metabolized
same,Bacterial Biotransformation,[22],Compound NOT metabolized
same,Bacterial Biotransformation,[23],Compound metabolized
same,Bacterial Biotransformation,[24],Compound NOT metabolized
same,Bacterial Biotransformation,[25],Compound NOT metabolized
same,Bacterial Biotransformation,[26],Compound NOT metabolized
same,Bacterial Biotransformation,[27],Compound NOT metabolized
same,Bacterial Biotransformation,[28],Compound metabolized
same,Bacterial Biotransformation,[29],Compound NOT metabolized
same,Bacterial Biotransformation,[30],Compound NOT metabolized
same,Bacterial Biotransformation,[31],Compound NOT metabolized
same,Bacterial Biotransformation,[32],Compound NOT metabolized
